Laboratory results as given in ChEMBL document CHEMBL4325844, “Development of 2-amino-4-phenylthiazole analogues to disrupt myeloid differentiation factor 88 and prevent inflammatory responses in acute lung injury” (Eur J Med Chem, 2019).
Activity calls are given as the source filed them. The calls are words filed in the database; no cut-off is given here.

Tests used:
[1] = Cytotoxicity against rat H9c2 cells assessed as cell viability at 20 uM after 24 hrs by MTT assay relative to control; format: cell-based; details: read-out: Activity
[2] = molecular target: Toll-like receptor 4/MD-2 (Homo sapiens) (UniProt O00206+Q9Y6Y9); assay: Inhibition of LPS-induced HA/FLAG-tagged TLR4 (unknown origin) interaction with MD2 (unknown origin) expressed in HEK293 cells at 20 uM after 48 hrs by co-immunoprecipitation method; format: cell-based
[3] = molecular target: Myeloid differentiation primary response protein MyD88 (Homo sapiens, UniProt Q99836); assay: Potency index, ratio of TJ-M2010-5 Kd to test compound Kd for recombinant human MyD88 TIR domain (157 to 296 residues) expressed in Escherichia coli BL21(DE3)
[4] = molecular target: Toll-like receptor 4 (Homo sapiens) (UniProt O00206); assay: Binding affinity to recombinant human 10His-tagged TLR4 (24 to 631 residues) by SPR assay
[5] = molecular target: Myeloid differentiation primary response protein MyD88 (Mus musculus) (UniProt P22366); assay: Inhibition of MyD88 in ICR mouse primary peritoneal macrophages assessed as reduction in LPS-induced IkappaB levels at 20 uM preincubated for 30 mins followed by LPS-stimulation and measured after 20 mins by Western blot analysis
Mus musculus [6] = assay: Antiinflammatory activity in LPS-induced C57/BL6 mouse model of acute lung injury assessed as reduction in total protein levels in BALF at 10 mg/kg, ip pretreated for 30 mins followed by LPS challenge measured after 6 hrs; format: functional, organism-based
Mus musculus [7] = assay: Antiinflammatory activity in LPS-induced C57/BL6 mouse model of acute lung injury assessed as reduction in lung wet/dry ratio at 10 mg/kg, ip pretreated for 30 mins followed by LPS challenge measured after 6 hrs; format: functional, organism-based
Mus musculus [8] = assay: Antiinflammatory activity in LPS-induced C57/BL6 mouse model of acute lung injury assessed as reduction in TNFalpha level in BALF at 10 mg/kg, ip pretreated for 30 mins followed by LPS challenge measured after 6 hrs by ELISA; format: functional, organism-based
Mus musculus [9] = assay: Antiinflammatory activity in LPS-induced C57/BL6 mouse model of acute lung injury assessed as reduction in TNFalpha level in serum at 10 mg/kg, ip pretreated for 30 mins followed by LPS challenge measured after 6 hrs by ELISA; format: functional, organism-based
Mus musculus [10] = assay: Antiinflammatory activity in LPS-induced C57/BL6 mouse model of acute lung injury assessed as reduction in IL6 mRNA expression at 10 mg/kg, ip pretreated for 30 mins followed by LPS challenge measured after 6 hrs by SYBR green dye based RT-qPCR analysis; format: functional, organism-based

Toll-like receptor 4 (Homo sapiens), sequence (O00206 whole entry, the tested form may be a part): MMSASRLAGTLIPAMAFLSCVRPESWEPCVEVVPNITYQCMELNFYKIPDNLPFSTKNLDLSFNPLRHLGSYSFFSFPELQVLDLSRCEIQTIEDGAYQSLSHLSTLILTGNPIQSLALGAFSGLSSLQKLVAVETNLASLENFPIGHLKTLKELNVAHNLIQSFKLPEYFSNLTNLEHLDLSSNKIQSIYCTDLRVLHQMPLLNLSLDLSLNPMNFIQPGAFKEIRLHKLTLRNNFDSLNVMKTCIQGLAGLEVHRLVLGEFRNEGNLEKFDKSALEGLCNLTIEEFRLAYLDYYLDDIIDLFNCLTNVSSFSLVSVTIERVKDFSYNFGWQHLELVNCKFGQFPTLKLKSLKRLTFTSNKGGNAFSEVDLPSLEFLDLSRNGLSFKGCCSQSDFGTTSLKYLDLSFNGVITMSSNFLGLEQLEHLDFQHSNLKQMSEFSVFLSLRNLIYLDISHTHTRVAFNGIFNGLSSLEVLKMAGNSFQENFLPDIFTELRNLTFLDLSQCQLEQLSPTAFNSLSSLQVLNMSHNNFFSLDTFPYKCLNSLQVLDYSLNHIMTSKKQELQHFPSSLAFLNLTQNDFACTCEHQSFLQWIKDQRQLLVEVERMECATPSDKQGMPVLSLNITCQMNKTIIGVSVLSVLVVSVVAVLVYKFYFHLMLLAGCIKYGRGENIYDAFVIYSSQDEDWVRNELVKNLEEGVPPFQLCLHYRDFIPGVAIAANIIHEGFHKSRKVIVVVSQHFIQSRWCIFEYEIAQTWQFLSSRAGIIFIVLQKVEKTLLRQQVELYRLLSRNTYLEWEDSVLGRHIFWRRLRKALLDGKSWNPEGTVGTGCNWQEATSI
Myeloid differentiation primary response protein MyD88, sequence (Q99836 whole entry, the tested form may be a part): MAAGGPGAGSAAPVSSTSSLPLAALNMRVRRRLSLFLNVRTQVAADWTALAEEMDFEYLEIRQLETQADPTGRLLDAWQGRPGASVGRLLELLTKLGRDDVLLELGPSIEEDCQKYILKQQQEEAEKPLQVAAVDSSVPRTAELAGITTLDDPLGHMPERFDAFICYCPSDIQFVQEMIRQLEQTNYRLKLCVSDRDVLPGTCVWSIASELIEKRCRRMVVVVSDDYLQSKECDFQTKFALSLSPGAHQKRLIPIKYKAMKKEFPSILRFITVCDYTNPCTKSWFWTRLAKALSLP
Myeloid differentiation primary response protein MyD88 (Mus musculus), sequence (P22366 whole entry): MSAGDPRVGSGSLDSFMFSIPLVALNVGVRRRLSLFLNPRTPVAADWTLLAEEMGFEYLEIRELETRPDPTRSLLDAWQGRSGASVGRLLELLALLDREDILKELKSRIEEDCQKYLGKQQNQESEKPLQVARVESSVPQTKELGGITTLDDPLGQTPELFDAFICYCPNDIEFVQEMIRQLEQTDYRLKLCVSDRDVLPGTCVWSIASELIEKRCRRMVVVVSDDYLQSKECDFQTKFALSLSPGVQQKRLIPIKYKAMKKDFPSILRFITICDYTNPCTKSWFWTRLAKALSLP

inhibition [2]: inactive
Ratio [3]: 5
Activity [4]: inactive
inhibition [5]: Active
Compound: COc1cc(-c2csc(NC(=O)CCN3CCN(Cc4cccc([N+](=O)[O-])c4)CC3)n2)ccc1O
viability at 24 h, 20 µM [1]: > 80%
Activity (Mus musculus [6]): Active
Activity (Mus musculus [7]): Active
Activity (Mus musculus [8]): Active
Activity (Mus musculus [9]): Active
Activity (Mus musculus [10]): Active
